Target: E. coli MenE (Escherichia coli, UniProt P37353)
Assay: MenE inhibition, coupled assay with MenE and MenB
Type: biochemical
Details: for Inhibition of MenE, result in words: inhibitor at up to 200 μM

Chain of E. coli MenE (P37353 whole entry): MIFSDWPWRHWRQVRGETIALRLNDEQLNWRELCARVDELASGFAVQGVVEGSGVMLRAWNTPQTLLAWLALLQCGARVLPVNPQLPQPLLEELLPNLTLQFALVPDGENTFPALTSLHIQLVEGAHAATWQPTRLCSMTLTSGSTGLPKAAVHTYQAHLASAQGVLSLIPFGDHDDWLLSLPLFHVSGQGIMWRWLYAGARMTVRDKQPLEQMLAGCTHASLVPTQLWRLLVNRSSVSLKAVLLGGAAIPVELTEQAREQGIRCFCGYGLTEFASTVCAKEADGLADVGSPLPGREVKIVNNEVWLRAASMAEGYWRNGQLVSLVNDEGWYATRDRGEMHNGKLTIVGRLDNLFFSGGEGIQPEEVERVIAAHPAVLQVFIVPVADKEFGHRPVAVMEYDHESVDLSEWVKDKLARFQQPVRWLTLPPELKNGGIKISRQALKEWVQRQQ

SMILES | Kinetic analysis of MenE inhibition (mode of binding) | Inhibition of MenE, result in words
COC(=O)c1ccccc1C(=O)CC/C=C/S(=O)(=O)NC[C@H]1O[C@@H](n2cnc3c(N)ncnc32)[C@H](O)[C@@H]1O [Compound 3, MeOSB-AVSN] | slow-binding inhibitor | 
COC(=O)c1ccccc1C(=O)CCC(=O)NS(=O)(=O)NC[C@H]1O[C@@H](n2cnc3c(N)ncnc32)[C@H](O)[C@@H]1O [Compound 2, MeOSB-AMSN] |  | effective inhibitors
COC(=O)c1ccccc1C(=O)CCC(=O)NS(=O)(=O)OC[C@H]1O[C@@H](n2cnc3c(N)ncnc32)[C@H](O)[C@@H]1O [Compound 1, MeOSB-AMS] |  | effective inhibitors
